System: Plasmodium berghei
Test: Luciferase/luciferin-expressing antifolate-resistant parasites were used to infect a culture of HepG2 cells that were pre-incubated with compounds. Infected hepatocytes emit light due to the luciferase reaction. Assay results are presented as the percent inhibition of light emission compared to control. […]
Format: functional
Settings: sporozoite; for IC90: read-out: LUCIFERASE INFECTION ASSAY - IC90

SMILES	IC90 [µM]	also measured
CCCc1c(NC(=O)Nc2ccc(F)cc2)cnn1-c1ccccc1	6.91	IC50 (HEPG2TOX_HILL_SLOPE 4.02, HEPG2TOX_R_SQUARED 0.285, PBLUC_HILL_SLOPE 3.66, PBLUC_R_SQUARED 0.261, read-out: LUCIFERASE INFECTION ASSAY - IC50): 3.79 µM
Cc1ccc(NC2=C(Cl)C(=O)c3ccccc3C2=O)cc1	7.81	IC50 (HEPG2TOX_HILL_SLOPE 4.14, HEPG2TOX_R_SQUARED 0.984, PBLUC_HILL_SLOPE 5.35, PBLUC_R_SQUARED 0.565, read-out: LUCIFERASE INFECTION ASSAY - IC50): 5.18 µM
CCN1C/C(=C/c2ccc(OC)c(O)c2)C(=O)/C(=C/c2ccc(OC)c(O)c2)C1	4.05	IC50 (HEPG2TOX_HILL_SLOPE 4, HEPG2TOX_R_SQUARED 0.984, PBLUC_HILL_SLOPE 15.6, PBLUC_R_SQUARED 0.475, read-out: LUCIFERASE INFECTION ASSAY - IC50): 3.52 µM
Cc1cc(C(C)(C)C)cc(C)c1C[n+]1c2n(c3ccc(C(F)(F)F)cc31)CCCCC2	2.85	IC50 (HEPG2TOX_HILL_SLOPE 3.95, HEPG2TOX_R_SQUARED 0.938, PBLUC_HILL_SLOPE 4.2, PBLUC_R_SQUARED 0.767, read-out: LUCIFERASE INFECTION ASSAY - IC50): 1.69 µM
CC(C)c1ccc(NC(=O)Nc2nc(C(N)CCc3ccccc3)cs2)cc1 (stereo not given)	7.09	IC50 (HEPG2TOX_HILL_SLOPE 3.95, HEPG2TOX_R_SQUARED 0.94, PBLUC_HILL_SLOPE 4.47, PBLUC_R_SQUARED 0.626, read-out: LUCIFERASE INFECTION ASSAY - IC50): 4.34 µM
Cn1ccc2cc(-c3cnc4cnc(-c5cccc(C(=O)NCCO)c5)cn34)ccc21	3.63	IC50 (HEPG2TOX_HILL_SLOPE 4.1, HEPG2TOX_R_SQUARED 0.752, PBLUC_HILL_SLOPE 9.77, PBLUC_R_SQUARED 0.277, read-out: LUCIFERASE INFECTION ASSAY - IC50): 2.9 µM
COc1ccc(NS(=O)(=O)c2cc([N+](=O)[O-])ccc2N/N=C(\C)c2ccc(S(=O)(=O)NCc3ccco3)cc2)cc1	4.99	IC50 (HEPG2TOX_HILL_SLOPE 4.01, HEPG2TOX_R_SQUARED 0.968, PBLUC_HILL_SLOPE 8.16, PBLUC_R_SQUARED 0.206, read-out: LUCIFERASE INFECTION ASSAY - IC50): 3.81 µM
COc1cc(/C=C2/C(=O)Nc3cc(Cl)ccc32)c([N+](=O)[O-])cc1OC(F)F	4.58	IC50 (HEPG2TOX_HILL_SLOPE 4.03, HEPG2TOX_R_SQUARED 0.974, PBLUC_HILL_SLOPE 1.79, PBLUC_R_SQUARED 0.765, read-out: LUCIFERASE INFECTION ASSAY - IC50): 1.34 µM
CN(C)c1ccccc1-c1cn2c(-c3ccc(CO)cc3)cnc2cn1	> 9.58	IC50 (HEPG2TOX_HILL_SLOPE 4.17, HEPG2TOX_R_SQUARED 0.686, PBLUC_HILL_SLOPE 6.79, PBLUC_R_SQUARED 0.489, read-out: LUCIFERASE INFECTION ASSAY - IC50): 8.57 µM
COc1ccc(-c2cnc3sc(NCCc4ccncc4)nn23)cc1OC	8.35	IC50 (HEPG2TOX_HILL_SLOPE 4.06, HEPG2TOX_R_SQUARED 0.383, PBLUC_HILL_SLOPE 12.9, PBLUC_R_SQUARED 0.15, read-out: LUCIFERASE INFECTION ASSAY - IC50): 7.04 µM
Cc1cc(C(=O)Cn2c(Cl)nc3c2c(=O)n(C)c(=O)n3C)c(C)n1-c1ccc2c(c1)OCCO2	> 10	IC50 (HEPG2TOX_HILL_SLOPE 4.07, HEPG2TOX_R_SQUARED 0.354, PBLUC_HILL_SLOPE 24.1, PBLUC_R_SQUARED 0.351, read-out: LUCIFERASE INFECTION ASSAY - IC50): 9.79 µM
COc1cc(CN(C)C(=O)c2ccc3c(c2)S(=O)(=O)N=C2CCCCCN23)ccc1OC(F)F	> 10	IC50 (HEPG2TOX_HILL_SLOPE 4.17, HEPG2TOX_R_SQUARED 0.672, PBLUC_HILL_SLOPE 0.764, PBLUC_R_SQUARED 0.62, read-out: LUCIFERASE INFECTION ASSAY - IC50): 1.97 µM
CCCCCNC(=O)COC(=O)c1ccccc1-n1ncc(Cl)c(Cl)c1=O	7.79	IC50 (HEPG2TOX_HILL_SLOPE 4.14, HEPG2TOX_R_SQUARED 0.93, PBLUC_HILL_SLOPE 2.41, PBLUC_R_SQUARED 0.609, read-out: LUCIFERASE INFECTION ASSAY - IC50): 3.13 µM
NS(=O)(=O)c1ccc(S(=O)(=O)N2CCCN(Cc3ccc(C(F)(F)F)cc3)CC2)cc1	> 10	IC50 (HEPG2TOX_HILL_SLOPE 4.06, HEPG2TOX_R_SQUARED 0.95, PBLUC_HILL_SLOPE 2.74, PBLUC_R_SQUARED 0.121, read-out: LUCIFERASE INFECTION ASSAY - IC50): 6.92 µM
Fc1cccc(-c2nc3ccnc(Nc4cccc(Oc5ccccc5)c4)c3[nH]2)c1	8.85	IC50 (HEPG2TOX_HILL_SLOPE 4.02, HEPG2TOX_R_SQUARED 0.911, PBLUC_HILL_SLOPE 2.5, PBLUC_R_SQUARED 0.399, read-out: LUCIFERASE INFECTION ASSAY - IC50): 3.68 µM
COc1ccc(/C(C)=N/NC(=O)c2sc3ccccc3c2Cl)c(O)c1	3.29	IC50 (HEPG2TOX_HILL_SLOPE 4.02, HEPG2TOX_R_SQUARED 0.607, PBLUC_HILL_SLOPE 31, PBLUC_R_SQUARED 0.396, read-out: LUCIFERASE INFECTION ASSAY - IC50): 3.06 µM
COc1ccc(S(=O)(=O)Nc2ccccc2C(=O)NNC(=O)c2ccccc2O)cc1	4.69	IC50 (HEPG2TOX_HILL_SLOPE 4.15, HEPG2TOX_R_SQUARED 0.834, PBLUC_HILL_SLOPE 17, PBLUC_R_SQUARED 0.564, read-out: LUCIFERASE INFECTION ASSAY - IC50): 4.12 µM
CC(C)N1/C(=C/c2ccc3c(c2)OCCO3)C(=O)c2ccccc2S1(=O)=O	> 8.56	IC50 (HEPG2TOX_HILL_SLOPE 4.1, HEPG2TOX_R_SQUARED 0.916, PBLUC_HILL_SLOPE 3.33, PBLUC_R_SQUARED 0.555, read-out: LUCIFERASE INFECTION ASSAY - IC50): 5.07 µM
C/C(=N\n1c(-c2cccc(Br)c2)cs/c1=N\c1ccc(Cl)cc1Cl)c1ccc2c(c1)OCO2	> 10	IC50 (HEPG2TOX_HILL_SLOPE 4.14, HEPG2TOX_R_SQUARED 0.54, PBLUC_HILL_SLOPE 9.69, PBLUC_R_SQUARED 0.311, read-out: LUCIFERASE INFECTION ASSAY - IC50): 9.72 µM
Cc1c(Cl)cccc1/N=C1\SCCN1C(=O)C(c1ccccc1)c1ccccc1	> 10	IC50 (HEPG2TOX_HILL_SLOPE 4.09, HEPG2TOX_R_SQUARED 0.235, read-out: LUCIFERASE INFECTION ASSAY - IC50): > 10 µM
CC(C)C(Nc1ccc(C(F)(F)F)cc1Cl)C(=O)Nc1nc(-c2ccccc2Cl)cs1 (stereo not given)	6.73	IC50 (HEPG2TOX_HILL_SLOPE 4.1, HEPG2TOX_R_SQUARED 0.707, PBLUC_HILL_SLOPE 4.35, PBLUC_R_SQUARED 0.154, read-out: LUCIFERASE INFECTION ASSAY - IC50): 4.06 µM
COc1ccc(Cn2c3c(c4ccccc4c2=O)C(=O)c2ccccc2-3)cc1	> 8.98	IC50 (HEPG2TOX_HILL_SLOPE 4, HEPG2TOX_R_SQUARED 0.749, PBLUC_HILL_SLOPE 2.74, PBLUC_R_SQUARED 0.283, read-out: LUCIFERASE INFECTION ASSAY - IC50): 7.93 µM
Cc1ccc(-c2c(C)nn3c(=O)cc(C)[nH]c23)cc1	12.5	IC50 (HEPG2TOX_HILL_SLOPE 4.15, HEPG2TOX_R_SQUARED 0.53, PBLUC_HILL_SLOPE 4.03, PBLUC_R_SQUARED 0.493, read-out: LUCIFERASE INFECTION ASSAY - IC50): 7.24 µM
CC(=O)Nc1cccc(-c2cn3c(-c4cccs4)cnc3cn2)c1	> 9.87	IC50 (HEPG2TOX_HILL_SLOPE 3.98, HEPG2TOX_R_SQUARED 0.532, PBLUC_HILL_SLOPE 3.16, PBLUC_R_SQUARED 0.221, read-out: LUCIFERASE INFECTION ASSAY - IC50): 5.11 µM
O=C(Nc1ccc(SC(F)(F)F)cc1)Nc1ccc(Oc2cccc(C(F)(F)F)c2)nc1	0.806	IC50 (HEPG2TOX_HILL_SLOPE 4.03, HEPG2TOX_R_SQUARED 0.946, PBLUC_HILL_SLOPE 9.59, PBLUC_R_SQUARED 0.631, read-out: LUCIFERASE INFECTION ASSAY - IC50): 0.641 µM
O=C(NC1CCN(c2ccc(S(=O)(=O)C(F)F)cc2)CC1)C1CC1	> 10	IC50 (HEPG2TOX_HILL_SLOPE 4.17, HEPG2TOX_R_SQUARED 0.587, PBLUC_HILL_SLOPE 17, PBLUC_R_SQUARED 0.152, read-out: LUCIFERASE INFECTION ASSAY - IC50): 8.89 µM
COc1ccc(-c2cnc3ccc(NCc4cccc(Cl)c4)nn23)cc1	8.06	IC50 (HEPG2TOX_HILL_SLOPE 4.15, HEPG2TOX_R_SQUARED 0.863, PBLUC_HILL_SLOPE 14.2, PBLUC_R_SQUARED 0.0441, read-out: LUCIFERASE INFECTION ASSAY - IC50): 6.9 µM
COc1cccc(CNCc2nc(NCc3cccc(OC)c3)c3c(C)c(C)sc3n2)c1	> 10	IC50 (HEPG2TOX_HILL_SLOPE 3.99, HEPG2TOX_R_SQUARED 0.699, PBLUC_HILL_SLOPE 15.2, PBLUC_R_SQUARED 0.535, read-out: LUCIFERASE INFECTION ASSAY - IC50): 8.97 µM
CN(C)c1cccc(CNc2nccc3nc(-c4cccc(F)c4)[nH]c23)c1	5.76	IC50 (HEPG2TOX_HILL_SLOPE 3.96, HEPG2TOX_R_SQUARED 0.788, PBLUC_HILL_SLOPE 4.1, PBLUC_R_SQUARED 0.415, read-out: LUCIFERASE INFECTION ASSAY - IC50): 3.37 µM
Cc1oc2c(c1C(=O)N1CCC(C)CC1)C(=O)c1ccccc1C2=O	> 10	IC50 (HEPG2TOX_HILL_SLOPE 3.97, HEPG2TOX_R_SQUARED 0.955, PBLUC_HILL_SLOPE 1.55, PBLUC_R_SQUARED 0.65, read-out: LUCIFERASE INFECTION ASSAY - IC50): 2.73 µM

— ChEMBL document CHEMBL4483862, “Open-source discovery of chemical leads for next-generation chemoprotective antimalarials” (2018)
